The source of these data is patent US7186743B2, “Substituted pyrazolyl compounds for the treatment of inflammation” (Pharmacia Corporation, priority 2001, dated 2007).

Where a name gives a salt, the structure may show the parent alone. Read-outs that look alike come from different tables or passages of the source. A value given as a limit tells only on which side of the number the result lay.

The assay has as its target T1, IKK2 (Homo sapiens, UniProt O14920).
T1 construct: made in house; host or cells: insect cells (baculovirus, pFastBac; SF9)
T1 sequence (O14920 1-756): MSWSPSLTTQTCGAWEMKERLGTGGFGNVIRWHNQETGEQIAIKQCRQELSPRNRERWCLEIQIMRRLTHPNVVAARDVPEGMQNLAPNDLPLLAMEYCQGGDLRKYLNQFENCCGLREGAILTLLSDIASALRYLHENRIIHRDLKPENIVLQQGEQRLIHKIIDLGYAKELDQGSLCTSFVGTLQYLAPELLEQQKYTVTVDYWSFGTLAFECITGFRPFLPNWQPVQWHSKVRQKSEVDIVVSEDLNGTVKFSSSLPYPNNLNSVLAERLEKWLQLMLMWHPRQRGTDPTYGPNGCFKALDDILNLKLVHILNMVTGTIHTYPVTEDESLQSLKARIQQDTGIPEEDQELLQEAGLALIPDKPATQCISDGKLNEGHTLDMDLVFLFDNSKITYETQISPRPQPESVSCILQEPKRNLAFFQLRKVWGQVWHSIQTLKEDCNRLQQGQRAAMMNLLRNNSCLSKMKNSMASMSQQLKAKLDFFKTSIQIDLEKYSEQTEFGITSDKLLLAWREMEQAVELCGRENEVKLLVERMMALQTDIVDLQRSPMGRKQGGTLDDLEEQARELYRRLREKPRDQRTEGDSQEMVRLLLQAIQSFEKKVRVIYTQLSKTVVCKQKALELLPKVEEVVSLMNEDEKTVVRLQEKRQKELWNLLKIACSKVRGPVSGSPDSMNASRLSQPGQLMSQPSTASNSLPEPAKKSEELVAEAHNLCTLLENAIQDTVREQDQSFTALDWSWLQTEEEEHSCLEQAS
In words: IKKβ Resin Enzyme Assay (IKK2 resin). The format is biochemical. The text has this:
cDNAs of human IKK1 and IKK2 were amplified by reverse transcriptase-polymerase chain reaction from human placental RNA (Clonetech). hIKK1 was subcloned into pFastBac HTa (Life Technologies) and expressed as N-terminal His6-tagged fusion protein. The hIKK2 cDNA was amplified using a reverse oligonucleotide primer which incorporated the peptide sequence for a FLAG-epitope tag at the C-terminus of the IKK2 coding region ([…]). The hIKK2:FLAG cDNA was subcloned into the baculovirus vector pFastBac. The rhIKK2 ([…]) mutant was constructed in the same vector used for wild type rhIKK2 using a QuikChange™ mutagenesis kit (Stratagene). Viral stocks of each construct were used to infect insect cells grown in 40 L suspension culture. […] Cell lysates were stored at −80° C. until purification of the recombinant proteins was undertaken as described below.
A 10-liter culture of baculovirus-expressing IKK2 tagged with FLAG peptide was centrifuged and the cell pellet (MOI=0.1 and I=72 hrs) was re-suspended in buffer A. These cells were microfluidized, and centrifuged at 100,000×g for 45 min. Supernatant was passed over a G-25 column equilibrated with Buffer A. Protein peak was collected and incubated with anti-FLAG affinity resin on a rotator overnight in buffer B. The resin was washed in batch with 10–15 bed volumes of buffer C. Washed resin was poured into a column and rhIKK2 homodimer was eluted using 5 bed volumes of buffer B containing FLAG peptide. 5 mM DTT, 0.1% NP-40 and BSA (concentrated to 0.1% in final amount) was added to the eluted enzyme before concentrating in using an Amicon membrane with a molecular weight cut-off of 30 kDa. Enzyme was aliquoted and stored at −80° C.
IKKβ kinase activity was measured using a biotinylated IκBα peptide ([…]32-Gly-Leu-Asp-Ser36-Met-Lys-Asp-Glu-Glu) (American Peptide Co.). […] ATP (Amersham) (about 1×10^5 cpm), 1 μM ATP (Sigma), 1 mM DTT (Sigma), 2 mM MgCl2 (Sigma), 2 mM MnCl2 (Sigma), 10 mM NaF (Sigma), 25 mM Hepes (Sigma) buffer, pH 7.6 and 20 μl enzyme solution and 10 ul inhibitor in a final volume of 50 μl. After incubation at 25° C. for 30 min, 150 μl resin (Dowex anion-exchange resin AG1X8 200–400 mesh) in 900 mM formate, pH 3.0 was added to each well to stop the reaction. Resin was allowed to settle for one hour and 50 ul of supernatant was removed to a Micolite-2 flat bottom plate (Dynex). 150 μl of scintillation fluid (Microscint 40) (Packard) was added to each well. Incorporation of [γ-^33P] ATP was measured using a Top-Count NXT (Packard).

Setting [1] is: Table 3, read-out: IKK Resin IC50.
Setting [2] is: Table 4, read-out: IKK2 Resin IC50.
Setting [3] is: Table 2, read-out: IKK Resin IC50.
Setting [4] is: Table 14, read-out: IKK2 Resin IC50.

Take `NC(=O)c1nn(-c2ccc(C#CCO)cc2)c2c1CCc1ccc(NC(=O)c3cccnc3Cl)cc1-2` [Example 386, 8-{[(2-chloropyridin-3-yl)carbonyl]amino}-1-[4-(3-hydroxyprop-1-ynyl)phenyl]-4,5-dihydro-1H-benzo[g]indazole-3-carboxamide]: under “Table 17, read-out: IKK2 Resin IC50”, the IC50 is at most 1000 nM.
For `CS(=O)(=O)c1ccc(-n2nc(C(N)=O)c3c2-c2cc(NC(=O)c4cc(Cl)ccc4[N+](=O)[O-])ccc2CC3)cc1` [Example 139, 8-[(5-chloro-2-nitrobenzoyl)amino]-1-[4-(methylsulfonyl)phenyl]-4,5-dihydro-1H-benzo[g]indazole-3-carboxamide], the IC50 under setting [1] was at most 1000 nM.
Consider `COc1ccc(C(=O)Nc2ccc3c(c2)-c2c(c(C(N)=O)nn2-c2ccc4c(c2)OCO4)CC3)c(Cl)c1OC` [Example 175, 1-(1,3-benzodioxol-5-yl)-8-[(2-chloro-3,4-dimethoxybenzoyl)amino]-4,5-dihydro-1H-benzo[g]indazole-3-carboxamide], for which the IC50 under setting [2] is at most 1000 nM.
For `CS(=O)(=O)c1ccc(-n2nc(C(N)=O)c3c2-c2cc(NC(=O)c4cccnc4Cl)ccc2CC3)cc1` [Example 98, 8-{[(2-chloropyridin-3-yl)carbonyl]amino}-1-[4-(methylsulfonyl)phenyl]-4,5-dihydro-1H-benzo[g]indazole-3-carboxamide], the IC50 under setting [3] was at most 1000 nM.
In the case of `CS(=O)(=O)c1ccc(-n2nc(C(N)=O)c3c2-c2cc(NC(=O)c4cc(F)ccc4[N+](=O)[O-])ccc2CC3)cc1` [Example 151, 8-[(5-fluoro-2-nitrobenzoyl)amino]-1-[4-(methylsulfonyl)phenyl]-4,5-dihydro-1H-benzo[g]indazole-3-carboxamide], the IC50 under setting [1] is at most 1000 nM.
In the case of `NC(=O)c1nn(-c2ccc(S(=O)(=O)C(F)(F)F)cc2)c2c1CCc1ccc(NC(=O)c3cccnc3Cl)cc1-2` [Example 359, 8-{[(2-chloropyridin-3-yl)carbonyl]amino}-1-{4-[(trifluoromethyl)sulfonyl]phenyl}-4,5-dihydro-1H-benzo[g]indazole-3-carboxamide], the IC50 under setting [4] was at most 1000 nM.
On the same count and under the same terms, the same measure for `NC(=O)c1nn(-c2ccc(S(=O)(=O)C(F)(F)F)cc2)c2c1CCc1ccc(NC(=O)c3ccncc3Cl)cc1-2` [Example 358, 8-[(3-chloroisonicotinoyl)amino]-1-{4-[(trifluoromethyl)sulfonyl]phenyl}-4,5-dihydro-1H-benzo[g]indazole-3-carboxamide hydrochloride]: at most 1000 nM.
Consider `NC(=O)c1nn(-c2ccc(O)cc2)c2c1CCc1ccc(NC(=O)c3cccnc3Cl)cc1-2` [Example 263, 8-{[(2-chloropyridin-3-yl)carbonyl]amino}-1-(4-hydroxyphenyl)-4,5-dihydro-1H-benzo[g]indazole-3-carboxamide], for which, where the note is “Table 8, read-out: IKK2 Resin IC50”, the IC50 is at most 1000 nM.
On to `NC(=O)c1nn(-c2ccc3c(c2)OCO3)c2c1CCc1ccc(NC(=O)c3ccccc3[N+](=O)[O-])cc1-2` [Example 192, 1-(1,3-benzodioxol-5-yl)-8-[(2-nitrobenzoyl)amino]-4,5-dihydro-1H-benzo[g]indazole-3-carboxamide], for which, under setting [2], the IC50 was at most 1000 nM.
Regarding `COc1ccc(Cl)c(C(=O)Nc2ccc3c(c2)-c2c(c(C(N)=O)nn2-c2ccc4c(c2)OCO4)CC3)c1` [Example 178, 1-(1,3-benzodioxol-5-yl)-8-[(2-chloro-5-methoxybenzoyl)amino]-4,5-dihydro-1H-benzo[g]indazole-3-carboxamide], the IC50 under setting [2] was at most 1000 nM.
Turning to `NC(=O)c1nn(-c2ccsc2)c2c1CCc1ccc(NC(=O)c3ccncc3Cl)cc1-2` [Example 383, 8-[(3-chloroisonicotinoyl)amino]-1-thien-3-yl-4,5-dihydro-1H-benzo[g]indazole-3-carboxamide], the IC50 (Table for Examples 381-385 (headed TABLE 14), read-out: IKK2 Resin IC50) is at most 1000 nM.
For the compound `NC(=O)c1nn(-c2ccc(F)cc2)c2c1CCc1ccc(NC(=O)c3ccncc3Cl)cc1-2` [Example 228, 8-[(3-chloroisonicotinoyl)amino]1-(4-fluorophenyl)-4,5-dihydro-1H-benzo[g]indazole-3-carboxamide hydrochloride], where the note is “Table 6, read-out: IKK2 Resin IC 50”, the IC50 was at most 1000 nM.
As to `CCCS(=O)(=O)c1ccc(-n2nc(C(N)=O)c3c2-c2cc(NC(=O)c4ccccc4Cl)ccc2CC3)cc1` [Example 400, 8-[(2-chlorobenzoyl)amino]-1-[4-(propylsulfonyl)phenyl]-4,5-dihydro-1H-benzo[g]indazole-3-carboxamide], the IC50 (Table 18, read-out: IKK2 Resin IC50) is at most 1000 nM.
As for `COc1ccc(C(=O)Nc2ccc3c(c2)-c2c(c(C(N)=O)nn2-c2ccc4c(c2)OCO4)CC3)c(Cl)c1` [Example 182, 1-(1,3-benzodioxol-5-yl)-8-[(2-chloro-4-methoxybenzoyl)amino]-4,5-dihydro-1H-benzo[g]indazole-3-carboxamide], the IC50 under setting [2] was at most 1000 nM.
`Cc1ncccc1C(=O)Nc1ccc2c(c1)-c1c(c(C(N)=O)nn1-c1ccc(S(C)(=O)=O)cc1)CC2` [Example 100]: the IC50 under setting [3] is at most 1000 nM.
Take `CSc1ccc(-n2nc(C(N)=O)c3c2-c2cc(NC(=O)c4cc(N)ccc4Cl)ccc2CC3)cc1` [Example 414, 8-[(5-amino-2-chlorobenzoyl)amino]-1-[4-(methylthio)phenyl]-4,5-dihydro-1H-benzo[g]indazole-3-carboxamide hydrochloride]: under “Table 19, read-out: IKK2 Resin IC50”, the IC50 was at most 1000 nM.
`COc1ccc(C(=O)Nc2ccc3c(c2)-c2c(c(C(N)=O)nn2-c2cccc(O)c2)CC3)c(Cl)c1OC` [Example 286, 8-[(2-chloro-3,4-dimethoxybenzoyl)amino]-1-(3-hydroxyphenyl)-4,5-dihydro-1H-benzo[g]indazole-3-carboxamide]: the IC50 (Table 10, read-out: IKK2 Resin IC50) is at most 1000 nM.
As to `CS(=O)(=O)c1ccc(-n2nc(C(N)=O)c3c2-c2cc(NC(=O)c4cc([N+](=O)[O-])ccc4Cl)ccc2CC3)cc1` [Example 111, 8-[(2-chloro-5-nitrobenzoyl)amino]-1-[4-(methylsulfonyl)phenyl]-4,5-dihydro-1H-benzo[g]indazole-3-carboxamide], the IC50 under setting [3] was at most 1000 nM.
As for `NC(=O)c1nn(-c2ccc3c(c2)OCO3)c2c1CCc1ccc(NC(=O)c3ccc(C(F)(F)F)nc3Cl)cc1-2` [Example 181, 1-(1,3-benzodioxol-5-yl)-8-({[2-chloro-6-(trifluoromethyl)pyridin-3-yl]carbonyl}amino)-4,5-dihydro-1H-benzo[g]indazole-3-carboxamide], the IC50 under setting [2] was at most 1000 nM.
On to `NC(=O)c1nn(-c2ccc(F)c(F)c2)c2c1CCc1ccc(NC(=O)c3cccnc3Cl)cc1-2` [Example 364, 8-{[(2-chloropyridin-3-yl)carbonyl]amino}-1-(3,4-difluorophenyl)-4,5-dihydro-1H-benzo[g]indazole-3-carboxamide], for which the IC50 under setting [4] is at most 1000 nM.
With `CS(=O)(=O)c1ccc(-n2nc(C(N)=O)c3c2-c2cc(NC(=O)c4cc(SC#N)ccc4[N+](=O)[O-])ccc2CC3)cc1` [Example 148, 3-[({3-(aminocarbonyl)-1-[4-(methylsulfonyl)phenyl]-4,5-dihydro-1H-benzo[g]indazol-8-yl}amino)carbonyl]-4-nitrophenylthiocyanate], the IC50 under setting [1] was at most 1000 nM.
